Measured values reported in the supplement of paper PMC10307832.

Experiments:
Test in all cases: relative viability (nuclei count vs DMSO), 5 days (fraction); higher = more cells survive
[1] = compound: CC1=CC(=NN1)NC2=CC(=NC(=N2)/C=C/C3=CC=CC=C3)N4CCN(CC4)C + CC(=O)c1c(C)c2cnc(Nc3ccc(N4CCNCC4)cn3)nc2n(C2CCCC2)c1=O [Palbociclib] (partner 0.5 µM)
Method in brief: (§1)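 One day after seeding in 1536-well plates, lung cancer cell lines were dosed by pin tool. Dosing was either single-drug or a fixed anchor-drug dose plus five library-drug doses (not always all listed) in √10 steps. After 5 days, nuclei were stained in one fix-and-stain step and counted on 4× images, and relative viability is the nuclei count of treated wells over that of vehicle wells, given as the median of duplicate plates.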

Bortezomib + Linsitinib = compound: CC(C)C[C@H](NC(=O)[C@H](Cc1ccccc1)NC(=O)c1cnccn1)B(O)O [Bortezomib] + C[C@]1(O)C[C@@H](c2nc(-c3ccc4ccc(-c5ccccc5)nc4c3)c3c(N)nccn32)C1 [Linsitinib] (partner 1 µM)
Method in brief: as §1

Bortezomib + Luminespib = compound: CC(C)C[C@H](NC(=O)[C@H](Cc1ccccc1)NC(=O)c1cnccn1)B(O)O [Bortezomib] + CCNC(=O)c1noc(-c2cc(C(C)C)c(O)cc2O)c1-c1ccc(CN2CCOCC2)cc1 [Luminespib] (partner 0.01 µM)
Method in brief: as §1

Bortezomib + OSI-027 = compound: CC(C)C[C@H](NC(=O)[C@H](Cc1ccccc1)NC(=O)c1cnccn1)B(O)O [Bortezomib] + COc1cccc2cc(-c3nc([C@H]4CC[C@H](C(=O)O)CC4)n4ncnc(N)c34)[nH]c12 [OSI-027] (partner 0.5 µM)
Method in brief: as §1

Row | Cell Line | relative viability ([1]; first compound 0.08 µM) | relative viability ([1]; first compound 0.253 µM) | relative viability ([1]; first compound 0.8 µM) | relative viability ([1]; first compound 2.53 µM) | relative viability ([1]; first compound 8 µM) | relative viability (Bortezomib + Linsitinib; first compound 0.0002 µM) | relative viability (Bortezomib + Linsitinib; first compound 0.000632 µM) | relative viability (Bortezomib + Linsitinib; first compound 0.002 µM) | relative viability (Bortezomib + Linsitinib; first compound 0.006325 µM) | relative viability (Bortezomib + Linsitinib; first compound 0.02 µM) | relative viability (Bortezomib + Luminespib; first compound 0.0002 µM) | relative viability (Bortezomib + Luminespib; first compound 0.000632 µM) | relative viability (Bortezomib + Luminespib; first compound 0.002 µM) | relative viability (Bortezomib + Luminespib; first compound 0.006325 µM) | relative viability (Bortezomib + Luminespib; first compound 0.02 µM) | relative viability (Bortezomib + OSI-027; first compound 0.0002 µM) | relative viability (Bortezomib + OSI-027; first compound 0.000632 µM) | relative viability (Bortezomib + OSI-027; first compound 0.002 µM) | relative viability (Bortezomib + OSI-027; first compound 0.006325 µM) | relative viability (Bortezomib + OSI-027; first compound 0.02 µM)
1 | 201T | 0.345 | 0.358 | 0.359 | 0.33 | 0.197 | 1.04 | 1.1 | 0.921 | 1.08 | 0.4 | 1.03 | 1.01 | 1.09 | 0.745 | 0.215 | 0.694 | 0.75 | 0.753 | 0.551 | 0.138
2 | A549 | – | – | – | – | – | 0.667 | 0.538 | 0.423 | 0.122 | 0.0542 | – | – | – | – | – | – | – | – | – | –
3 | A-427 | 0.58 | 0.518 | 0.51 | 0.454 | 0.201 | 1.06 | 1.03 | 1.1 | 1.16 | 0.285 | 0.889 | 0.926 | 0.589 | 0.33 | 0.125 | 0.346 | 0.327 | 0.503 | 0.182 | 0.132
4 | ABC-1 | 0.668 | 0.633 | 0.934 | 0.636 | 0.227 | 0.806 | 0.688 | 0.308 | 0.257 | 0.234 | 0.439 | 0.523 | 0.262 | 0.252 | 0.227 | 0.476 | 0.296 | 0.193 | 0.183 | 0.2
5 | BEN | 0.421 | 0.459 | 0.511 | 0.437 | 0.328 | 0.814 | 0.927 | 0.763 | 0.592 | 0.173 | 0.314 | 0.665 | 0.568 | 0.249 | 0.184 | 0.302 | 0.288 | 0.28 | 0.259 | 0.167
6 | CAL-12T | 0.412 | 0.335 | 0.466 | 0.185 | 0.119 | 0.898 | 0.852 | 0.742 | 0.662 | 0.165 | 0.121 | 0.447 | 0.412 | 0.599 | 0.105 | 0.757 | 0.578 | 0.754 | 0.165 | 0.129
7 | COR-L23 | 0.315 | 0.33 | 0.24 | 0.127 | 0.0777 | 0.994 | 0.828 | 0.495 | 0.0469 | 0.0499 | 0.639 | 0.669 | 0.61 | 0.0526 | 0.058 | 0.808 | 0.755 | 0.58 | 0.0553 | 0.0549
8 | COR-L 105 | 0.432 | 0.381 | 0.406 | 0.275 | 0.323 | 0.848 | 0.99 | 0.711 | 0.293 | 0.282 | 0.784 | 0.914 | 0.614 | 0.434 | 0.211 | 0.747 | 0.606 | 0.456 | 0.316 | 0.272
9 | Calu-6 | – | – | – | – | – | 0.938 | 0.775 | 0.961 | 0.214 | 0.0654 | – | – | – | – | – | – | – | – | – | –
10 | ChaGo-K-1 | 0.756 | 0.952 | 0.933 | 0.378 | 0.17 | – | – | – | – | – | 0.577 | 0.554 | 0.683 | 0.356 | 0.169 | 0.576 | 0.539 | 0.623 | 0.48 | 0.149
11 | EBC-1 | – | – | – | – | – | 0.902 | 0.801 | 0.516 | 0.0706 | 0.0667 | – | – | – | – | – | – | – | – | – | –
12 | EKVX | 0.414 | 0.465 | 0.362 | 0.301 | 0.144 | 1.01 | 0.936 | 0.915 | 0.609 | 0.0808 | 0.833 | 0.827 | 0.89 | 0.646 | 0.113 | 0.725 | 0.672 | 0.79 | 0.605 | 0.109
13 | EMC-BAC-2 | 0.519 | 0.543 | 0.504 | 0.454 | 0.273 | 0.828 | 0.805 | 0.786 | 0.46 | 0.132 | 1.21 | 1.11 | 1.17 | 0.441 | 0.208 | 0.359 | 0.296 | 0.321 | 0.206 | 0.181
14 | EPLC-272H | 0.299 | 0.342 | 0.319 | 0.291 | 0.204 | – | – | 1.26 | 1.29 | 0.109 | 0.36 | 0.143 | 0.217 | 0.148 | 0.115 | 0.306 | 0.282 | 0.286 | 0.125 | 0.106
15 | H3255 | 0.322 | 0.319 | 0.345 | 0.313 | 0.267 | 0.914 | 1.02 | 0.705 | 0.263 | 0.19 | 0.765 | 0.856 | 1.02 | 0.386 | 0.271 | 0.593 | 0.601 | 0.466 | 0.352 | 0.28
16 | HARA | 0.296 | 0.31 | 0.266 | 0.174 | 0.103 | 0.899 | 0.836 | 0.895 | 0.0675 | 0.0867 | 0.718 | 0.77 | 0.607 | 0.0345 | 0.0465 | 0.439 | 0.322 | 0.616 | 0.0379 | 0.0617
